Measurements from PubChem BioAssay (NCI).
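Interpolation was linear, between the two tested concentrations surrounding the appropriate level; five concentrations were tested over 48 hours in 96-well plates. At the TGI there is no net growth.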

Experiments:
Experiment in all cases: NCI anticancer screen, dose series, 48 h
EKVX NSCLC = tested on: EKVX NSCLC
HCT-116 colon = tested on: HCT-116 colon
HOP-62 NSCLC = tested on: HOP-62 NSCLC
NCI-H460 lung = tested on: NCI-H460 lung
OVCAR-8 ovarian = tested on: OVCAR-8 ovarian
SK-MEL-28 melanoma = tested on: SK-MEL-28 melanoma
A498 renal = tested on: A498 renal
CAKI-1 renal = tested on: CAKI-1 renal
HOP-92 NSCLC = tested on: HOP-92 NSCLC
SK-MEL-2 melanoma = tested on: SK-MEL-2 melanoma

| Structure (SMILES) | TGI (EKVX NSCLC) [µM] | TGI (HCT-116 colon) [µM] | TGI (HOP-62 NSCLC) [µM] | TGI (NCI-H460 lung) [µM] | TGI (OVCAR-8 ovarian) [µM] | TGI (SK-MEL-28 melanoma) [µM] | TGI (A498 renal) [µM] | TGI (CAKI-1 renal) [µM] | TGI (HOP-92 NSCLC) [µM] | TGI (SK-MEL-2 melanoma) [µM] |
| --- | --- | --- | --- | --- | --- | --- | --- | --- | --- | --- |
| O=C1/C(=C/c2ccc(Cl)cc2)Oc2cc(O)ccc21 | 94.3 | > 100 | > 100 | 89.3 | > 100 | > 100 |  |  |  |  |
| COc1ccc(-n2c(SC(CN3CCOCC3)CN3CCCC3=O)nc3ccccc3c2=O)cc1 (stereo not drawn) | > 100 | > 100 |  | > 100 | > 100 | > 100 | > 100 | > 100 | > 100 | > 100 |
| Oc1c(CN2CCCC2)ccc2cccnc12 | > 100 | > 100 | > 65.8 | > 84.6 | 32.4 | > 100 | > 70.3 | 60.8 | > 100 | > 95.6 |
| CC(C)(C)NC1=NC(C(F)(F)F)(C(F)(F)F)NC(=O)N1 | > 100 | > 100 | > 100 | > 100 | > 100 | > 100 |  | > 100 | > 100 | > 100 |
| Nc1nc(Cl)cc(OCC2(CO)CCCC2)n1 | > 100 | > 100 | > 100 | > 100 | > 100 | > 100 | > 100 |  | > 100 |  |
| Cn1c(-c2ccc[se]2)ccc1-c1ccc(C=O)[se]1 | > 100 | > 100 | 35.3 | 24.2 | 42.2 | > 100 | 3.01 | 0.738 | > 82.1 | > 100 |
| Cc1nn(C(=O)c2ccccc2O)c2c1C(c1ccc(O)cc1O)SC(N)=N2 (stereo not drawn) | > 10 | > 10 | > 10 | > 10 | > 10 | > 10 | > 10 | > 10 | > 10 | > 10 |
| Cc1ccc(Cc2cc(N3CCN(c4cccc(Cl)c4)CC3)nnc2C)cc1 | > 100 | > 100 | > 100 | > 100 | > 100 | > 100 | > 100 | > 100 |  | > 100 |
| O=c1[nH]c(=O)c2ncn(-c3ccc([N+](=O)[O-])cn3)c2[nH]1 | > 100 | > 100 | > 100 | > 100 | > 100 | > 100 | > 100 | > 100 | > 100 | > 100 |
| O=C1/C(=C/c2ccc(O)cc2)CCCC1CN1CCCCC1 (stereo not drawn) | 7.8 | 3.22 | 29.8 | 30.7 | 13.6 | 10.6 | 20.4 | 8.3 | 3.47 | 26.9 |
| CCOC(=O)/C=C(/C(=O)OCC)n1cc(C)c(=O)n(Cc2cnnn2COCCOC(C)=O)c1=O | 29.3 | 28.4 | > 100 | > 61.5 | 29.1 | 47.5 | 90 | 11 | 8.22 | 60.3 |
| O=C(CN1CCCC1=O)CS(=O)(=O)c1ccccc1 | > 100 | > 100 | > 100 | > 100 | > 100 | > 100 |  |  |  | > 100 |
| Cc1nnc(N)nc1/C=C\c1ccc(Cl)cc1Cl | > 100 | 63.1 | 36.3 | 42.8 | > 100 | > 100 | > 100 | > 100 | > 100 | 32.6 |
| COC(=O)CN(CC(=O)NCCCBr)C1CCCCC1N(CC(=O)OC)CC(=O)OC (stereo not drawn) | > 100 | > 100 | > 100 | > 100 | > 100 | > 100 | > 100 | > 100 | > 100 | > 100 |
| Cc1cc2c(c(C(=O)NCC(=O)N[C@@H](C)C(=O)OCc3ccccc3)c1)Oc1c(cc(C)cc1C(=O)NCC(=O)N[C@@H](C)C(=O)OCc1ccccc1)S2 | > 100 | > 100 | > 100 | > 100 | > 100 |  | > 100 | > 100 |  | > 100 |
| COc1cc(CC(C)=O)cc(OC)c1 | > 100 | > 100 | > 100 | > 100 | > 100 | > 100 | > 100 |  | > 100 |  |
| CCc1cc(C)cc2[n+]1CC=C2 | 87.9 | 48.2 | 51.3 | 93.9 | > 100 | > 100 |  | > 100 | 45 | 40.2 |
| CN(C)CN1CSC(=S)N(CN(C)C)C1 | > 100 | > 100 | > 100 | > 100 | > 100 | > 100 | > 100 | > 100 | > 100 | 96.3 |
| COc1ccc2c(c1)Oc1cc(O)ccc1[C@H]2c1ccccc1C(=O)NC(C)c1ccccc1 (stereo partly drawn) | 33.5 | 26.5 | 44.6 | 26.8 | 36 | 34.7 | 30.8 | 33.7 |  | 82.2 |
| COC(C/C(=C/CO[Si](C(C)C)(C(C)C)C(C)C)C(=O)N(C(=O)OC(C)(C)C)c1ccccc1I)OC |  | > 100 | > 100 | > 100 | > 100 | > 100 | > 100 | > 100 | > 100 | 37.5 |
| O=C(NC(=S)Nc1ccc([N+](=O)[O-])cc1)c1ccc2c(c1)Sc1ccccc1O2 |  | > 100 | > 100 | > 100 | > 100 | > 100 | > 100 | > 100 | > 100 | > 100 |
| CC(=O)OCC1OC(N2C(=O)NC(=O)C3C=C4CCCCC4=CC32)CC1OC(C)=O (stereo not drawn) | > 100 | > 100 | > 100 | > 100 | > 100 | > 100 | > 100 |  | > 100 | > 100 |
